pIC50: −log10 of the molar value.

In one assay the target is T1, human VR1 (Homo sapiens, UniProt Q8NER1).
T1 construct: expressed in transfected cells
T1 sequence (Q8NER1 whole entry): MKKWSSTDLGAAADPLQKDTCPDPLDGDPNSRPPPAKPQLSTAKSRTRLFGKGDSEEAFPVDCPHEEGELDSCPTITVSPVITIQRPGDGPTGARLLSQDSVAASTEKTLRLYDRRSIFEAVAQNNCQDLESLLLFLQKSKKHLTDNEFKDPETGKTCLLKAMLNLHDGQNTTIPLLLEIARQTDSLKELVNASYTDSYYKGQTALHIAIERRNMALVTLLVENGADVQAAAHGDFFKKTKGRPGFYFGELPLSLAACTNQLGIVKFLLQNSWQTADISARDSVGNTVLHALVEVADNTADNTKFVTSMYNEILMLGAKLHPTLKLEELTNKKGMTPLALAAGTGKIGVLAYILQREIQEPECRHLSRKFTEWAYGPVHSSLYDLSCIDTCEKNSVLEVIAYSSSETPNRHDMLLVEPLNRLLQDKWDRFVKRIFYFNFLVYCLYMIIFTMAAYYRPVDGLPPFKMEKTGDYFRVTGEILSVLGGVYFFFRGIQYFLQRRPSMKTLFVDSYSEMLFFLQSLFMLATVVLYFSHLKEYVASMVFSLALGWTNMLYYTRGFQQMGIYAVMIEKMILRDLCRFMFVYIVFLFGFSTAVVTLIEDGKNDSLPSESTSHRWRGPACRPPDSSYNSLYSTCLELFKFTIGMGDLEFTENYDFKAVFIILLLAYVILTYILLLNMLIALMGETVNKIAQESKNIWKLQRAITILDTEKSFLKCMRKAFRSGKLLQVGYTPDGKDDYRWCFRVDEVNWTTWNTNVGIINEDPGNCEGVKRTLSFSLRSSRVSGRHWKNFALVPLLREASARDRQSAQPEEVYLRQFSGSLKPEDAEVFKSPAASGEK
The assay can be described thus: Capsaicin-induced Ca2+ influx in the human VR1-transfected CHO cell line (Assay 1).
Details: not given
It counts as cell-based. The protocol: [Measurement of Capsaicin-Induced Ca^2+ Influx in the Human VR1-Transfected CHO Cell Line] (Assay 1)
(1) Establishment of the Human VR1-CHOluc9aeq Cell Line
The cloned hVR1 cDNA was constructed with pcDNA3 vector and transfected into a CHOluc9aeq cell line. The cell line contains aequorin and CRE-luciferase reporter genes as read-out signals. The transfectants were cloned by limiting dilution in selection medium (DMEM/F12 medium (Gibco BRL) supplemented with 10% FCS, 1.4 mM Sodium pyruvate, 20 mM HEPES, 0.15% Sodium bicarbonate, 100 U/ml penicillin, 100 μg/ml streptomycin, 2 mM glutamine, non-essential amino acids and 2 mg/ml G418). Ca^2+ influx was examined in the capsaicin-stimulated clones. […] The human VR1-CHOluc9aeq cells were maintained in the selection medium and passaged every 3-4 days at 1-2.5×10^5 cells/flask ([…]).
(2) Measurement of Ca^2+ Influx Using FDSS-3000
Human VR1-CHOluc9aeq cells were suspended in a culture medium which is the same as the selection medium except for G418 and seeded at a density of 1,000 cells per well into 384-well plates (black walled clear-base/Nalge Nunc International). […] After washing twice with assay buffer the cells were incubated with a test compound or vehicle for 20 min at 25° C. […] Integral R was calculated and compared with controls.
The molecule `O=C(Nc1cccc(OC(F)(F)F)c1)Nc1ccccc1CCO` [Example 2-2, N-[2-(2-hydroxyethyl)phenyl]-N′-[3(trifluoromethoxy)phenyl]urea] showed a pIC50 greater than 7.00.

The assay is the same for the next values; noted with them: human VR1-CHOluc9aeq cells, 10 nM capsaicin; compound purity about 40 to 90%; read-out: hVR1 class.
As for `COc1ccc(COc2cc(CNC(=O)Nc3ccccc3)ccc2OC)cc1` [Example 6], the pIC50 is 6.00 to 6.30.

As for `COc1ccc(COc2cc(CNC(=O)Nc3ccc(F)cc3)ccc2OC)cc1` [Example 7], the pIC50 is 6.00 to 6.30.

With `COc1cccc(CNC(=O)Nc2cccc(SC)c2)c1` [Example 8], the pIC50 is 6.00 to 6.30.

In the case of `COc1cccc(CNC(=O)Nc2ccccc2)c1` [Example 9], the pIC50 is 6.00 to 6.30.

Take `COc1cccc(CNC(=O)Nc2cccc(OC)c2)c1` [Example 10]: the pIC50 was 6.00 to 6.30.

Take `COc1cccc(CNC(=O)Nc2ccc(F)cc2)c1` [Example 11]: the pIC50 was 6.00 to 6.30.

In the case of `COc1ccc(CNC(=O)Nc2cccc(SC)c2)cc1OC` [Example 12], the pIC50 is 6.00 to 6.30.

With `COc1ccc(CNC(=O)Nc2ccccc2)cc1OC` [Example 13], the pIC50 was 6.00 to 6.30.

In the case of `COc1cccc(NC(=O)NCc2ccc(OC)c(OC)c2)c1` [Example 14], the pIC50 is 6.00 to 6.30.

For the molecule `COc1ccc(CNC(=O)Nc2ccc(F)cc2)cc1OC` [Example 15], the pIC50 was 6.00 to 6.30.

For `CSc1cccc(NC(=O)NCc2ccc3c(c2)OCO3)c1` [Example 16], the pIC50 was 6.00 to 6.30.

For the molecule `O=C(NCc1ccc2c(c1)OCO2)Nc1ccccc1` [Example 17], the pIC50 was 6.00 to 6.30.

Take `COc1cccc(NC(=O)NCc2ccc3c(c2)OCO3)c1` [Example 18]: the pIC50 is 6.00 to 6.30.

For `O=C(NCc1ccc2c(c1)OCO2)Nc1ccc(F)cc1` [Example 19], the pIC50 is 6.00 to 6.30.

Consider `COc1cc2c(cc1OC)CN(C(=O)Nc1cccc(SC)c1)CC2` [Example 20], for which the pIC50 is 6.00 to 6.30.

For `COc1cc2c(cc1OC)CN(C(=O)Nc1ccccc1)CC2` [Example 21], the pIC50 was 6.00 to 6.30.

Consider `COc1cccc(NC(=O)N2CCc3cc(OC)c(OC)cc3C2)c1` [Example 22], for which the pIC50 was 6.00 to 6.30.

Regarding `COc1cc2c(cc1OC)CN(C(=O)Nc1ccc(F)cc1)CC2` [Example 23], the pIC50 is 6.00 to 6.30.

Consider `COCOc1cccc(CNC(=O)Nc2ccccc2)c1` [Example 24], for which the pIC50 is 6.00 to 6.30.

As to `COCOc1cccc(CNC(=O)Nc2cccc(OC)c2)c1` [Example 25], the pIC50 was 6.00 to 6.30.

With `COCOc1cccc(CNC(=O)Nc2cccc(SC)c2)c1` [Example 26], the pIC50 was 6.00 to 6.30.

For the molecule `COCOc1cccc(CNC(=O)Nc2ccc(F)cc2)c1` [Example 27], the pIC50 is 6.00 to 6.30.

As for `O=C(NCc1cccc(O)c1)Nc1ccccc1` [Example 28], the pIC50 is 6.00 to 6.30.

For `CSc1cccc(NC(=O)NCc2cccc(O)c2)c1` [Example 29], the pIC50 was 6.00 to 6.30.

Regarding `COc1cccc(NC(=O)NCc2cccc(O)c2)c1` [Example 30], the pIC50 was 6.00 to 6.30.

On to `O=C(NCc1cccc(O)c1)Nc1ccc(F)cc1` [Example 31], for which the pIC50 is 6.00 to 6.30.

For `COc1cc(CNC(=O)Nc2cccc(SC)c2)ccc1O` [Example 32], the pIC50 was 6.30 to 7.00.

In the case of `COc1cc(CNC(=O)Nc2ccccc2)ccc1O` [Example 33], the pIC50 is 6.00 to 6.30.

With `COc1ccc(CNC(=O)Nc2cccc(SC)c2)cc1O` [Example 35], the pIC50 was 6.00 to 6.30.

On to `COc1ccc(CNC(=O)Nc2ccccc2)cc1O` [Example 36], for which the pIC50 was 6.00 to 6.30.

With `CSc1cccc(NC(=O)NCc2cccc(Cl)c2)c1` [Example 37], the pIC50 is 6.00 to 6.30.

Regarding `O=C(NCc1cccc(Cl)c1)Nc1ccccc1` [Example 38], the pIC50 is 6.00 to 6.30.

As to `COc1cccc(NC(=O)NCc2cccc(Cl)c2)c1` [Example 39], the pIC50 is 6.00 to 6.30.

`O=C(NCc1cccc(Cl)c1)Nc1ccc(F)cc1` [Example 40]: the pIC50 is 6.00 to 6.30.

Regarding `O=C(NCc1ccc(Cl)c(Cl)c1)Nc1ccccc1` [Example 42], the pIC50 is 6.30 to 7.00.

For `COc1cccc(NC(=O)NCc2ccc(Cl)c(Cl)c2)c1` [Example 43], the pIC50 was 6.30 to 7.00.
